This is an account of results in ChEMBL document CHEMBL4507298 (2021).

Bounds are passed on as bounds.

One assay addresses Prostacyclin receptor (Homo sapiens, UniProt P43119). In words: Binding assay (PTGIR).
Assay [1] concerns the target Myotonin-protein kinase (Homo sapiens) (UniProt Q09013). To be noted: Compound concentration 1000.0 nM.
Assay [2] deals with Mitogen-activated protein kinase kinase kinase 3 (Homo sapiens) (UniProt Q99759). To be noted: Compound concentration 1000.0 nM.
Assay [3] deals with Serine/threonine-protein kinase Nek11 (Homo sapiens) (UniProt Q8NG66). To be noted: Compound concentration 1000.0 nM.
Assay [4] deals with Serine/threonine-protein kinase PknB (Mycobacterium tuberculosis) (UniProt P9WI81). The settings on record: Compound concentration 1000.0 nM.
Assay [5] deals with Serine/threonine-protein kinase TAO3 (Homo sapiens) (UniProt Q9H2K8). The settings on record: Compound concentration 1000.0 nM.
The target in assay [6] is Serine/threonine-protein kinase D1 (Homo sapiens) (UniProt Q15139). The settings on record: Compound concentration 1000.0 nM.
Assay [7] has as its target Serine/threonine-protein kinase WNK3 (Homo sapiens) (UniProt Q9BYP7). To be noted: Compound concentration 1000.0 nM.
For assay [8], the target named is Serine/threonine-protein kinase WNK1 (Homo sapiens) (UniProt Q9H4A3). The settings on record: Compound concentration 1000.0 nM.
The target of assay [9] is Mitogen-activated protein kinase kinase kinase 14 (Homo sapiens) (UniProt Q99558). To be noted: Compound concentration 1000.0 nM.
In assay [10] the target is Beta-1 adrenergic receptor (Homo sapiens) (UniProt P08588). The experiment in a line: beta 1 (h) CEREP ligand profiling. To be noted: Compound concentration 10.0 uM.
Assay [11] has as its target Phosphodiesterase 6 (Homo sapiens) (UniProt Q13956+P18545+P35913+O43924+P16499+P51160). In words: PDE6 CEREP ligand profiling. In kind it is protein assay. To be noted: Compound concentration 10.0 uM.
Assay [12] deals with Eukaryotic translation initiation factor 2-alpha kinase 1 (Homo sapiens) (UniProt Q9BQI3). The settings on record: Compound concentration 1000.0 nM.
Assay [13] has as its target Motilin receptor (Homo sapiens) (UniProt O43193). The experiment in a line: Motilin (h) CEREP ligand profiling. The settings on record: Compound concentration 10.0 uM.
Assay [14] addresses Vasopressin V2 receptor (Homo sapiens) (UniProt P30518). The experiment in a line: V2 (h) CEREP ligand profiling. The settings on record: Compound concentration 10.0 uM.
Assay [15] deals with Serine/threonine-protein kinase NLK (Homo sapiens) (UniProt Q9UBE8). The settings on record: Compound concentration 1000.0 nM.
Assay [16] addresses Ribosomal protein S6 kinase alpha-3 (Homo sapiens) (UniProt P51812). To be noted: Compound concentration 1000.0 nM.
Assay [17] has as its target Type-1 angiotensin II receptor (Homo sapiens) (UniProt P30556). The experiment in a line: AT1 (h) CEREP ligand profiling. The settings on record: Compound concentration 10.0 uM.
Assay [18] has as its target T1, D(4) dopamine receptor (Homo sapiens) (UniProt P21917).
T1 sequence (whole entry): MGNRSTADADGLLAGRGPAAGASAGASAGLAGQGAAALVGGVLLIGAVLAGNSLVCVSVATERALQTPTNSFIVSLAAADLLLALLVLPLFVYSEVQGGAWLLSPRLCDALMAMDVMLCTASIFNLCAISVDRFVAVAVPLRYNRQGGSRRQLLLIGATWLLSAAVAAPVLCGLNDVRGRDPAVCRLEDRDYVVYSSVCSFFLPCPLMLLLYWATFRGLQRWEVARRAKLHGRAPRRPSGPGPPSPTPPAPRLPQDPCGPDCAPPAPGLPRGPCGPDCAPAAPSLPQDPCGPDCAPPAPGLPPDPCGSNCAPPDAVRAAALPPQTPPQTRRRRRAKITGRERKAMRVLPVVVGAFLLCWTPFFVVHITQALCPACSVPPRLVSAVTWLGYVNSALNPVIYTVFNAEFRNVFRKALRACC
The experiment in a line: D4.4 (h) CEREP ligand profiling. To be noted: Compound concentration 10.0 uM.

The target in assay [19] is Serine/threonine-protein kinase PLK3 (Homo sapiens) (UniProt Q9H4B4). The settings on record: Compound concentration 1000.0 nM.
The target of assay [20] is Serine/threonine-protein kinase MRCK gamma (Homo sapiens) (UniProt Q6DT37). The settings on record: Compound concentration 1000.0 nM.
Assay [21] deals with Fibroblast growth factor receptor 3 (Homo sapiens), P22607 [G697C]. The settings on record: Compound concentration 1000.0 nM.
Assay [22] has as its target Serine/threonine-protein kinase BRSK1 (Homo sapiens) (UniProt Q8TDC3). The settings on record: Compound concentration 1000.0 nM.
The target in assay [23] is Aurora kinase C (Homo sapiens) (UniProt Q9UQB9). The settings on record: Compound concentration 1000.0 nM.
In assay [24] the target is Melatonin receptor type 1A (Homo sapiens) (UniProt P48039). In words: ML1 CEREP ligand profiling. To be noted: Compound concentration 10.0 uM.
In assay [25] the target is Serine/threonine-protein kinase 17A (Homo sapiens) (UniProt Q9UEE5). The settings on record: Compound concentration 1000.0 nM.
For assay [26], the target named is Tyrosine-protein kinase JAK2 (Homo sapiens) (UniProt O60674). To be noted: Compound concentration 1000.0 nM.
The target of assay [27] is Dual specificity protein kinase CLK3 (Homo sapiens) (UniProt P49761). The settings on record: Compound concentration 1000.0 nM.
In assay [28] the target is Ephrin type-B receptor 3 (Homo sapiens) (UniProt P54753). The settings on record: Compound concentration 1000.0 nM.
In assay [29] the target is 5-hydroxytryptamine receptor 1A (Homo sapiens) (UniProt P08908). In words: 5-HT1A (h) CEREP ligand profiling. To be noted: Compound concentration 10.0 uM.
For assay [30], the target named is Serine/threonine-protein kinase 38-like (Homo sapiens) (UniProt Q9Y2H1). To be noted: Compound concentration 1000.0 nM.
For assay [31], the target named is Mitogen-activated protein kinase 15 (Homo sapiens) (UniProt Q8TD08). To be noted: Compound concentration 1000.0 nM.
Assay [32] has as its target LIM domain kinase 2 (Homo sapiens) (UniProt P53671). To be noted: Compound concentration 1000.0 nM.
Assay [33] has as its target Ribosomal protein S6 kinase alpha-6 (Homo sapiens) (UniProt Q9UK32). The settings on record: Compound concentration 1000.0 nM.
For the next assay, the target named is Histamine H4 receptor (Homo sapiens, UniProt Q9H3N8). In words: GPCRScan assay: inhibition of H4. Details: radioligand conc. used [nm] 1.0 – 5.0, parental cells HEK T.
In assay [34] the target is Prostaglandin E2 receptor EP2 subtype (Homo sapiens, UniProt P43116). In words: Inhibition of binding to PTGER2.
Assay [35] has as its target Sigma non-opioid intracellular receptor 1 (Homo sapiens) (UniProt Q99720). The settings on record: Compound concentration 10.0 uM.

Sequence of Mitogen-activated protein kinase kinase kinase 3 (Homo sapiens) (Q99759 whole entry): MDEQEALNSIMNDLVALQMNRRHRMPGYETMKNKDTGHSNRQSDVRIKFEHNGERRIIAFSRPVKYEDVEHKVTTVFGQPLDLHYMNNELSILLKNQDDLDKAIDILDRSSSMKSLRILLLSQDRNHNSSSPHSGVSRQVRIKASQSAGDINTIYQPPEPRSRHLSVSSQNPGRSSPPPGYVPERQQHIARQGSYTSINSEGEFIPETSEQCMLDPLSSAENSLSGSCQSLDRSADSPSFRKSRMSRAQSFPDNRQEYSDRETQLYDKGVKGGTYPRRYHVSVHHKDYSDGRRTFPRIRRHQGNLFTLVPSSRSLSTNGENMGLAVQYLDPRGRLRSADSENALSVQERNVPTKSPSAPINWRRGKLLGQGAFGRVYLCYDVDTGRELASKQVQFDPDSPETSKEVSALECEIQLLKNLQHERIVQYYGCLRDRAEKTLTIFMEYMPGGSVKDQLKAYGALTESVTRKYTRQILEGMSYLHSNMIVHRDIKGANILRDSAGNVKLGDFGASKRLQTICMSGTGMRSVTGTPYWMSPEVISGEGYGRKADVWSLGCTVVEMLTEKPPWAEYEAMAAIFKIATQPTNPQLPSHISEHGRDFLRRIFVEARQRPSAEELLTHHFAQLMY
Sequence of Serine/threonine-protein kinase 38-like (Homo sapiens) (Q9Y2H1 2-464 limits assumed): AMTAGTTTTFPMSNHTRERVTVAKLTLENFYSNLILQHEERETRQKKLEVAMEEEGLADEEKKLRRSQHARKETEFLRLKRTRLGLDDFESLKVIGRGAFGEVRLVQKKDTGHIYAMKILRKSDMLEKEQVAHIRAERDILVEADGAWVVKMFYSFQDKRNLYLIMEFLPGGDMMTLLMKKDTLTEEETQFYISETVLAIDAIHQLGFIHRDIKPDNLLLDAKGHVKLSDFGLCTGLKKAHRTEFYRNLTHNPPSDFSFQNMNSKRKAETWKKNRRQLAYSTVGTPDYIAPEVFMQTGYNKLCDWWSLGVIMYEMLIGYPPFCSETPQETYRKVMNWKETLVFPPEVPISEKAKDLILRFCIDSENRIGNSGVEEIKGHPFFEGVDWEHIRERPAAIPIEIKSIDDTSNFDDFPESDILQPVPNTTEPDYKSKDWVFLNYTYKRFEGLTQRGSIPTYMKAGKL
Sequence of Motilin receptor (Homo sapiens) (O43193 whole entry): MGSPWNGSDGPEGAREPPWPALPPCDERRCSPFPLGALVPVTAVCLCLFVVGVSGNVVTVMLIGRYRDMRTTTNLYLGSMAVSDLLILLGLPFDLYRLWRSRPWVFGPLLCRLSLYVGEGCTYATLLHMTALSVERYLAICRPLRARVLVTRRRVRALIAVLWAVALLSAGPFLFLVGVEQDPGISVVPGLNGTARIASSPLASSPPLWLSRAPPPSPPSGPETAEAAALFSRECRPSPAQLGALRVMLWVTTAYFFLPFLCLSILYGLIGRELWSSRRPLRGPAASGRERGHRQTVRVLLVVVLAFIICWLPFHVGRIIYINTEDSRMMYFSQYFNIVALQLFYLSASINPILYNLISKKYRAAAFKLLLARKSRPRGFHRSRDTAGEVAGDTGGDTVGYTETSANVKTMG
Sequence of 5-hydroxytryptamine receptor 1A (Homo sapiens) (P08908 whole entry): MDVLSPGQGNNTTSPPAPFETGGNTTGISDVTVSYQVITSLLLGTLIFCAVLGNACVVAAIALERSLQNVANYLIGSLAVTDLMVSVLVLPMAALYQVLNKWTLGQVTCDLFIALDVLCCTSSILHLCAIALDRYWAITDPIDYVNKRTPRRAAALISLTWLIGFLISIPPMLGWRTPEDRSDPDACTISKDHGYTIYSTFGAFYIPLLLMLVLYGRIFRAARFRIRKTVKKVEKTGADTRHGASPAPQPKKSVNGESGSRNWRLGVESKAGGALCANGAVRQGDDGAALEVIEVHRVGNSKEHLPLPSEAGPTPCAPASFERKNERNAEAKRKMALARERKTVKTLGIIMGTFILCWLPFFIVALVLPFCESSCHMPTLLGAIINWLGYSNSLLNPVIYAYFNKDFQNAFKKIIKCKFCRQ
Sequence of Serine/threonine-protein kinase BRSK1 (Homo sapiens) (Q8TDC3 whole entry): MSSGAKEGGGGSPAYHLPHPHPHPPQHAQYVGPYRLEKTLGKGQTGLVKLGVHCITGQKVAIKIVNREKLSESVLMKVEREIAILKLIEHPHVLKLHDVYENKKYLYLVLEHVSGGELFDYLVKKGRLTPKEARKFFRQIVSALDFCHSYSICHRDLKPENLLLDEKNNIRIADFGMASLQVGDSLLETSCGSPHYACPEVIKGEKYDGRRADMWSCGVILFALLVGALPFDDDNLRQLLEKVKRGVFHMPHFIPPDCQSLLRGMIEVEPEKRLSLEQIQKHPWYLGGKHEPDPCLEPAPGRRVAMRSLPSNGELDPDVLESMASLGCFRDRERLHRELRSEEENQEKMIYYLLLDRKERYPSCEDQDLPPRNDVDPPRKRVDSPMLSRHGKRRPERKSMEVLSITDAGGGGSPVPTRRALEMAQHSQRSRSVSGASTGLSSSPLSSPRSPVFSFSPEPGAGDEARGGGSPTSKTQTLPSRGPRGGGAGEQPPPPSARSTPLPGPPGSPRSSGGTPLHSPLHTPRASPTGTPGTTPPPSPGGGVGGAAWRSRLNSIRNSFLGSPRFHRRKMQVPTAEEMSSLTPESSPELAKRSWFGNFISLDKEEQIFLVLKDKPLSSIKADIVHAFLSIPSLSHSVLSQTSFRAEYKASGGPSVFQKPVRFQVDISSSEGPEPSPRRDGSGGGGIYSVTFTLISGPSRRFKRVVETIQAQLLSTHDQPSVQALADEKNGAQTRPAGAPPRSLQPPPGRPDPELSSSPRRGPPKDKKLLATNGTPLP
Sequence of Eukaryotic translation initiation factor 2-alpha kinase 1 (Homo sapiens) (Q9BQI3 whole entry): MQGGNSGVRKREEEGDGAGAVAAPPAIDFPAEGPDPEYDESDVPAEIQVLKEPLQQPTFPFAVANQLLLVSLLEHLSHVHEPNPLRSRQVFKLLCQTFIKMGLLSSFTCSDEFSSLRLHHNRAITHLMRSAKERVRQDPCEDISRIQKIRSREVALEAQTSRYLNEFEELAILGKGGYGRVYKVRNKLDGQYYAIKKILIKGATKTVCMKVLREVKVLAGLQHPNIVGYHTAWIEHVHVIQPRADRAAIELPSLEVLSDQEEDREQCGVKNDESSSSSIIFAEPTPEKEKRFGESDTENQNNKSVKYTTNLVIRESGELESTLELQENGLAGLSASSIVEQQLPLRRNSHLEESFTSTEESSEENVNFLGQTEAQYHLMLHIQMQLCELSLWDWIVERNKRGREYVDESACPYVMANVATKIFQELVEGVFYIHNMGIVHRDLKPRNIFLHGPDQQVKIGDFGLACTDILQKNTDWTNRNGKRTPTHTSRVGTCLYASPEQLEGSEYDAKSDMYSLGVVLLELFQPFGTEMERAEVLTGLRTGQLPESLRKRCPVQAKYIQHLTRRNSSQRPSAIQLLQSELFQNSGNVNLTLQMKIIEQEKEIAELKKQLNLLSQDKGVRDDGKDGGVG
Sequence of Serine/threonine-protein kinase PknB (Mycobacterium tuberculosis) (P9WI81 whole entry): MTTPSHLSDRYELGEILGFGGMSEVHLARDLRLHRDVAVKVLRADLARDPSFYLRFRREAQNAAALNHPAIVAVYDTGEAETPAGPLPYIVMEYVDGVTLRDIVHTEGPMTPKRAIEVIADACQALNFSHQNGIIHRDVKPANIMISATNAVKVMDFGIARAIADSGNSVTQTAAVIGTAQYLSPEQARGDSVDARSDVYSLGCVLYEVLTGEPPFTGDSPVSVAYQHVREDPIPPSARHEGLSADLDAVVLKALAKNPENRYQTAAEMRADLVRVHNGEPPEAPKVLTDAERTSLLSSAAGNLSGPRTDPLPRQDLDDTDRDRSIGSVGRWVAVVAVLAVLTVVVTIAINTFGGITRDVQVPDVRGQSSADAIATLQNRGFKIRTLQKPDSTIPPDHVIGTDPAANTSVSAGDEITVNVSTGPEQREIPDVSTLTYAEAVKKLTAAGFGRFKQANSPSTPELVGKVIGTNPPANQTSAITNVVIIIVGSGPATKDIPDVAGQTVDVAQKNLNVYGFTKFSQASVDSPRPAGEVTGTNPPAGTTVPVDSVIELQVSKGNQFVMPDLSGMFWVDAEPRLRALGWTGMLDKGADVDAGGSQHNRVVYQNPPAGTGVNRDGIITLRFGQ
Sequence of Serine/threonine-protein kinase PLK3 (Homo sapiens) (Q9H4B4 whole entry, looked up): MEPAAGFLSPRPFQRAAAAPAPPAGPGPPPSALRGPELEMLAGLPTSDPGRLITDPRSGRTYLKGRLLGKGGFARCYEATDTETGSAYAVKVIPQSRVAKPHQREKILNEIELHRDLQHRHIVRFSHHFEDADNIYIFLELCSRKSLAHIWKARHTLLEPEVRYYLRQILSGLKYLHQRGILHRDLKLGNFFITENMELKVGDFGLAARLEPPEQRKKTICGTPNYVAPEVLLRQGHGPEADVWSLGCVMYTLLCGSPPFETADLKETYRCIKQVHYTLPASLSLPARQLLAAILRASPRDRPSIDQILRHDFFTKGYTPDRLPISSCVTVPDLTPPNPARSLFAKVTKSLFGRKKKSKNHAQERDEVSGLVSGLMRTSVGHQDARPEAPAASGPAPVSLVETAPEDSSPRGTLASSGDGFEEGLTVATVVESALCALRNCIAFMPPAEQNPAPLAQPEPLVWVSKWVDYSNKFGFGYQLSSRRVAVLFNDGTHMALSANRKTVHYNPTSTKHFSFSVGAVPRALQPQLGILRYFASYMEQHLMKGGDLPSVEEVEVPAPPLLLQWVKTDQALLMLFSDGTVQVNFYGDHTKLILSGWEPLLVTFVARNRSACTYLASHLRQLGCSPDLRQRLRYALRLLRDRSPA
Sequence of Type-1 angiotensin II receptor (Homo sapiens) (P30556 whole entry): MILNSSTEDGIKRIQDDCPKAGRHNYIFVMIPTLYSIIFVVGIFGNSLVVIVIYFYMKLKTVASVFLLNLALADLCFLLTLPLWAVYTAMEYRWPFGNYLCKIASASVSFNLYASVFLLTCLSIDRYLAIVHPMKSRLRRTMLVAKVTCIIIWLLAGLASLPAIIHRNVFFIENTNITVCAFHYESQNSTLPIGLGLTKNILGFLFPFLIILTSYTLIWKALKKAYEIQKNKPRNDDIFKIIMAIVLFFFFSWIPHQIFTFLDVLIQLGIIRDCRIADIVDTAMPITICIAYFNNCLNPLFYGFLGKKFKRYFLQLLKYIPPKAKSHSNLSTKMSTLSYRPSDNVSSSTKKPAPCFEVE

Regarding `COc1ccc2cc(OCC3(C(=O)O)CN(C(=O)c4ccc(F)cc4)C3)ccc2c1` [PF-04418948], the Ki on Prostacyclin receptor was > 10 µM (not active). Further, the residual activity is 76% in assay [1]; 97% in [2]; 93% in assay [3]; 88% in [4]; 35% in assay [5]; 96% in assay [6]. Besides, the residual activity is 93% in assay [7]; 84% in assay [8]; 82% in assay [9]; 94% in assay [12]; 94% in assay [15]; 85% in assay [16]. For the same molecule, the residual activity is 95% in [19]; 91% in assay [20]; 88% in assay [21]; 85% in assay [22]; 98% in assay [23]; 81% in assay [25]. For the same molecule, the residual activity in [26] was 89%; in [27], 99%; in [28], 99%; in assay [30] it was 86%; in assay [31] it was 74%; in assay [32] it was 90%. The residual activity in assay [33] is 77%. The inhibition in [10] was 9%; in assay [11], 3%; in assay [13], -5%; in [14], -1%; in [17], 1%; in assay [18], -8%. The inhibition is -3% in assay [24] and 6% in [29].
Consider `O=C(c1ccc(F)cc1)N1CC(COc2ccc(Br)cc2)(C(=O)O)C1` [PF-04475866], for which the Ki on Histamine H4 receptor worked out at 10 µM. Moreover, the IC50 in [34] is given as 1.3 µM (not active). For the same molecule, the inhibition in assay [35] is 20.3%.
